US11986485B1, “Compositions and methods for treating epilepsy” (POVIVA CORP, priority 2023, dated 2024)
Entries after “also recorded” stand apart in the source; their conditions may differ.

Assay: Hepatic markers (ALT, AST, ALP, GGT, total bilirubin) during 5-week administration
Type: in vivo, humans
Description: The study protocol was registered at the ClinicalTrials.gov (accessed on 7 Apr. 2022) (NCT05346562). […] Following a two-week washout, participants then repeated testing for another five weeks under different conditions. Participants visited the laboratory on 6 occasions in total (3 in each study arm), each time following an overnight fast. The complete course of the study was performed at the Department for Integrative Physiology, University of Split School of Medicine, Split, Croatia. The study design, implementation, and reporting followed the CONSORT guidelines, including the 25-item checklist and a flow diagram. The study was conducted according to the guidelines of the Declaration of Helsinki and was approved by the Ethics Committee of University of Split School of Medicine on 15 Dec. 2021 (Class: 003-08/21-03/0003; Reg. No.: 2181-198-03-04-21-0091). Prior to enrollment in the study, every participant was informed about the procedures, course, and purpose of the research and each of them individually signed an informed written consent.
Each patient visited the laboratory 6 times in total. During each visit, a sample of venous blood was taken from forearm following an overnight fast and sample of urine was obtained. All blood and urine samples were analyzed in the same certified institutional biochemical laboratory, using the standard operating procedures.
Hepatic (ALT, AST, ALP, GGT, and total bilirubin) markers were also measured.
Moreover, these changes we<1 standard deviation and therefore viewed as not clinically meaningful. As noted earlier, >3SD over normative values were classified as an AE.

[1] = 5 weeks administration, versus placebo
[2] = 5 weeks administration, versus placebo, listed as CBD

With `C=C(C)[C@@H]1CCC(C)=C[C@H]1c1c(O)cc(CCCCC)cc1O` [Cannabidiol, 2-[(1R,6R)-6-Isopropenyl-3-methylcyclohex-2-en-1-yl]-5-pentylbenzene-1,3-diol] the “plasma alanine transaminase (ALT)” value [1] was “remained effectively unchanged over time”, the “plasma alkaline phosphatase (ALP)” value [1] was “remained effectively unchanged over time” and the plasma total bilirubin [1] was “remained effectively unchanged over time”. The “plasma aspartate transaminase (AST)” value [2] was “higher in the placebo condition; also recorded: remained effectively unchanged over time”, the “plasma gamma-glutamyl transferase (GGT)” value [2] was “slightly higher; also recorded: remained effectively unchanged over time” and the “size of GGT and AST changes” value (viewed as not clinically meaningful) was less than 1 standard deviation.
